According to publication PMC6271933, “Evaluation of the Toxicity of 5-Aryl-2-Aminoimidazole-Based Biofilm Inhibitors against Eukaryotic Cell Lines, Bone Cells and the Nematode Caenorhabditis elegans” (Molecules, 2014):
Values joined by “and” are separate entries in the source; they are usually repeats but may differ in a detail not shown here. Equal entries are not always repeated.

How the values were obtained:
[1] = test system: human T-lymphocyte (CEM); assay: Cytostatic activity against tumor cell lines (cell number by Coulter counter); type: cell-based; details: 72 h, concentration inhibiting cell proliferation by 50%, three days incubation, mean of three repeats
Description: (§1) The IC50 was defined as the compound concentration required to inhibit cell proliferation by 50%. The therapeutic index (TI) was calculated as the ratio of the compound concentration producing toxicity (IC50) to the concentration needed to exert the desired ‘therapeutic’ effect on biofilms of Salmonella and Pseudomonas, indicated by the BIC50 (dose needed to prevent biofilm formation by 50%). The higher the therapeutic index, the broader the safety window of the compound.
(§2) Murine leukemia (L1210), human T-lymphocyte (CEM) and human cervix carcinoma (HeLa) were suspended at 300,000–500,000 cells/mL of culture medium, and 100 µL of a cell suspension was added to 100 µL of an appropriate dilution of the test compounds in 200 µL-wells of 96-well microtiter plates. After incubation at 37 °C for two (L1210), three (CEM) or four (HeLa) days, the cell number was determined using a Coulter counter. The IC50 was defined as the compound concentration required to inhibit cell proliferation by 50%.

[2] = test system: human cervix carcinoma (HeLa); assay: as above; type: cell-based; details: 96 h, concentration inhibiting cell proliferation by 50%, four days incubation, mean of three repeats
Description: as §1, §2

[3] = test system: murine leukemia (L1210); assay: as above; type: cell-based; details: Mus musculus, L1210, 48 h; concentration inhibiting cell proliferation by 50%; two days incubation; mean of three repeats
Description: as §1, §2

[4] = test system: S. Typhimurium biofilm; details: concentration preventing biofilm formation (at 25 °C) by 50%; as previously reported ref 13, 14, 15, 16; read-out: BIC50 S. Typhimurium; cited from earlier work
[5] = test system: P. aeruginosa biofilm; details: concentration preventing biofilm formation (at 25 °C) by 50%; as previously reported ref 13, 14, 15, 16; read-out: BIC50 P. aeruginosa; cited from earlier work
[6] = test system: C. elegans; type: in vivo, Caenorhabditis elegans; details: 25 µM, after 7 days relative to viability at day 0; mean of at least two repeats
Description: Eggs of a double mutant (glp-4Dsek-1D) of C. elegans were grown on NGM/OP50 agar plates (NGM agar plates on the surface inoculated with 100 µL of an overnight culture of OP50 Escherichia coli and stored at 4 °C until use) at 25 °C until all nematodes had reached the L4 stage. Worms were collected and washed with M9 buffer (3 g/L KH2PO4, 6 g/L Na2HPO4, 5 g/L NaCl, 1 mM MgSO4). For toxicity testing, 40 to 50 worms were suspended in 250 μL M9 (supplemented with 10 µg/mL cholesterol, 75 µg/mL ampicillin and 100 µg/mL kanamycin) buffer in each well of 24-well microtiter plates, in the presence or absence (0.5% DMSO control) of 25, 100 or 200 µM of the test compounds and grown for 7 days at 25 °C. The percentage survival of the worms in the presence or absence of anti-biofilm compounds was calculated after 7 days relative to their viability at day 0.

Compound	IC50 [1] [µM]	IC50 [2] [µM]	IC50 [3] [µM]	IC50 [4] [µM]	IC50 [5]	C. elegans % survival at 25 µM [6] [%]
COc1cccc(CCn2c(-c3ccc(Cl)c(Cl)c3)cnc2N)c1 [compound 17]	8.6	6.6	6.9	> 400	–	–
CCCCNc1ncc(-c2ccccc2)[nH]1 [compound 18]	667	19.5	46.4	25.3	31.8 µM	–
CC(C)CNc1ncc(-c2ccccc2)[nH]1 [compound 19]	383	91.4	83.6	4.9	1.2 µM	–
c1ccc(-c2cnc(NC3CCCC3)[nH]2)cc1 [compound 20]	293	27.3	27.3	52.9	33.8 µM	98.1
CCCCNc1ncc(-c2ccc(Cl)cc2)[nH]1 [compound 21]	375	34.7	40	–	–	–
CCCCCNc1ncc(-c2ccc(Cl)cc2)[nH]1 [compound 23]	323	19.8	22	> 400	~6.3 µM and 6.3 µM	–
Clc1ccc(-c2cnc(NC3CCCC3)[nH]2)cc1 [compound 24]	591	28.8	35.5	4.4	13.5 µM	100.1
CC(C)CNc1ncc(-c2ccc(Br)cc2)[nH]1 [compound 26]	306	22.6	31.7	2.9	1.2 µM	–
CCCCCNc1ncc(-c2ccc(Br)cc2)[nH]1 [compound 27]	375	16.3	14.9	3.1	10.2 µM	–
Brc1ccc(-c2cnc(NC3CCCC3)[nH]2)cc1 [compound 28]	674	32.7	32.7	12.1	7.2 µM	–
Clc1ccc(-c2cnc(NC3CCCC3)[nH]2)cc1Cl [compound 29]	156	79.8	76.1	5.7	7.9 µM	–
COc1ccc(-c2nc(N)[nH]c2-c2ccccc2)cc1 [compound 30]	52.8	45.2	64.1	77.1	–	–
Nc1nc(-c2ccc(Cl)cc2)c(-c2ccccc2)[nH]1 [compound 31]	48.2	40.8	59.3	46.9	–	–
Cc1ccc(-c2nc(N)[nH]c2-c2ccc(Cl)cc2)cc1 [compound 32]	10.2	9.5	12.3	12.9	–	–
Nc1nc(-c2ccc(C(F)(F)F)cc2)c(-c2ccc(Cl)cc2)[nH]1 [compound 33]	35.5	26.1	41.5	10.8	–	–
CCCCCOc1ccc(Cc2nc(N)n(Cc3ccccc3)c2-c2ccc(C)cc2)cc1 [compound 35]	8.4	14.8	8.6	10.3	27.4 µM	–
c1ccc(-c2cn(CCCNc3ncc(-c4ccccc4)[nH]3)nn2)cc1 [compound 36]	453	72.9	221	36.5	> 400 µM	87.7
c1ccc(-c2cn(CCCCNc3ncc(-c4ccccc4)[nH]3)nn2)cc1 [compound 37]	459	107	218	40	19 µM	86.4
COc1ccc(-c2cnc(NCCCn3cc(-c4ccc(Br)cc4)nn3)[nH]2)cc1 [compound 38]	597	16.8	18.4	91.2	42.7 µM	–
Brc1ccc(-c2cnc(NCCCn3cc(C4CCCCC4)nn3)[nH]2)cc1 [compound 39]	396	22.5	20.7	8.4	~12.5 µM and 12.5 µM	99.3
